This note sets out measurements from ChEMBL document CHEMBL1201862, “PubChem BioAssay data set” (2004).

The source made the active and inactive calls. Some results are limits rather than exact numbers.

For assay [1], the target named is T1, DNA repair protein RAD52 homolog (Homo sapiens, UniProt P43351).
T1 sequence (P43351 whole entry): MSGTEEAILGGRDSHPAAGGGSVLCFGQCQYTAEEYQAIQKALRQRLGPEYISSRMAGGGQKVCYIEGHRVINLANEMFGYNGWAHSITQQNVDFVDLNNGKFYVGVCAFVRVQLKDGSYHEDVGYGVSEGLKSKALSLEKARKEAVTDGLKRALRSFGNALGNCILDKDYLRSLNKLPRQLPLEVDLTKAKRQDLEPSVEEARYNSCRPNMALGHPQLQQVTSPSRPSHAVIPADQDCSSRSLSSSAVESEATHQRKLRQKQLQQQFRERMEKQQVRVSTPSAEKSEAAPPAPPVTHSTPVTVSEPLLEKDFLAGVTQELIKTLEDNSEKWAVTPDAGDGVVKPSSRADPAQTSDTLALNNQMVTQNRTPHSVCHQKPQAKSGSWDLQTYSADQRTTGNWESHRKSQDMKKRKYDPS
The format is functional, biochemical.

The nature of assay [2]: HepG2 cell cytotoxicity, dose response, cytotoxicity control, ATP luminescence, cherry-pick, set 6 (AID 1053125). The format is functional, cell-based.
A short description of assay [3]: A375 melanoma cell cytotoxicity, dose response, counter-screen for MITF inhibitor project, CellTiter-Glo luminescence, dry powder, set 2 (AID 624489).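 Also: actives are compounds lowering A375 viability meaning general cytotoxicity.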 The assay is classed as functional, cell-based. To be noted: A-375. (A counterscreen serves to expose hits that act by an unwanted route or on another target.)
A short description of assay [4]: A375 melanoma cell viability loss, dose response, counter-screen for MITF inhibitor project, CellTiter-Glo luminescence, dry powder, set 4 (AID 624364).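 Also: A375 melanoma cells are MITF independent so this is a counter screen.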 To be noted: A-375. The format is functional, cell-based.
A short description of assay [5]: Late stage counterscreen for inhibitors of Trypanosoma brucei methionyl tRNA synthetase (MetRS): Luminescence-based cell-based high throughput dose response assay to identify compounds that are cytotoxic to Jurkat human T lymphocyte cells. The assay is classed as functional.
For assay [6], the target named is T2, Methionyl-tRNA synthetase, putative (Trypanosoma brucei brucei, UniProt Q38C91).
T2 sequence (Q38C91 whole entry): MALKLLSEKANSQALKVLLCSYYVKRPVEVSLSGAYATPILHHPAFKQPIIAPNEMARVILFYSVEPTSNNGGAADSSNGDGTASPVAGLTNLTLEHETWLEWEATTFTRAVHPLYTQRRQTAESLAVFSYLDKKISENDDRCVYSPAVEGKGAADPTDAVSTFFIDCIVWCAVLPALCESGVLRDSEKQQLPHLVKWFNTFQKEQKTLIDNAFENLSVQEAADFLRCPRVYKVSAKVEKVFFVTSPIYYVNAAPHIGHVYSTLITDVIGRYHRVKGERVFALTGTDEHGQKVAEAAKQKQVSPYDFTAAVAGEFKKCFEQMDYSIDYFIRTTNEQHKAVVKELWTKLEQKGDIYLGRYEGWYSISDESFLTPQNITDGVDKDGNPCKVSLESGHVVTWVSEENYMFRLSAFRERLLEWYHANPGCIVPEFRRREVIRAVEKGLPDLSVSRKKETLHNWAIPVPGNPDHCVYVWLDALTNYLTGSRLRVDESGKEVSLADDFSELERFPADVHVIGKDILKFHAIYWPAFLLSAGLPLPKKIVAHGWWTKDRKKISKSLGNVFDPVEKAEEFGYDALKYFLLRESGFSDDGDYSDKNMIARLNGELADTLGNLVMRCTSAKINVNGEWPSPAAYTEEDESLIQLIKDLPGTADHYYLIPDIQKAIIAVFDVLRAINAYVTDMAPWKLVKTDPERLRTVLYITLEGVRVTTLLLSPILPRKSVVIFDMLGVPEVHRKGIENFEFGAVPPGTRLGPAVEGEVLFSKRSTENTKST
The assay is classed as functional, Trypanosoma brucei brucei strain 927/4 GUTat10.1.

Assay [7] is described as follows: Counterscreen for inhibitors of Trypanosoma brucei methionyl tRNA synthetase (MetRS): Luminescence-based cell-based high throughput dose response assay to identify compounds that are cytotoxic to Jurkat human T lymphocyte cells. The format is functional.
Assay [8] concerns the target T2, Methionyl-tRNA synthetase, putative. The format is functional, Trypanosoma brucei brucei strain 927/4 GUTat10.1. The source holds these as a separate data set.
Assay [9] in a line: HEK293 cell cytotoxicity, dose response, cytotoxicity control, cherry-picks, set 5 (AID 1053117). The format is functional, cell-based.
A short description of assay [10]: HEK293T cytotoxicity, dose response, cytotoxicity control for miR-122 modulator project, cell-based, inhibitor set, cherry-pick, set 2 (AID 720697). The format is functional.
The nature of assay [11]: inhibitors of fibronectin matrix deposition, dose response, AH1F cells, Alexa488-FN fluorescence, cherry-picks (AID 1035475). The format is functional, cell-based.
Assay [12] is described as follows: HepG2 cell cytotoxicity, dose response, cytotoxicity control, cherry-picked samples (AID 1159577). The format is functional, cell-based.
Assay [13] is described as follows: P. falciparum Dd2 growth inhibitors, dose response, SYBR Green, cherry-picked samples (AID 1159567). The format is functional, cell-based.
Assay [14] can be described thus: miR-122 activators in hepatoma reporter cells, dose response, cell-based, Huh7 psiCHECK-miR122, Renilla luciferase, cherry-picked (AID 651956).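 Also: huh7 hepatoma cells stably carrying a psiCHECK-2 miR-122 sensor plasmid; renilla luciferase signal reporting endogenous miR-122 activity after 48 h compound exposure.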 The format is functional.
The nature of assay [15]: HepG2 cell cytotoxicity, dose response, cytotoxicity control, cherry-picks, set 5 (AID 1053118). The assay is classed as functional, cell-based.

As usually defined, the AC50 is the concentration at which the activity in the assay is half-maximal. As to `Cc1cccn2c(=O)c3cc(C(N)=S)c(=N)n(CCCN4CCOCC4)c3nc12`, the AC50 in [1] was 3.43 µM (active); in “cells”, 5.15 µM (active); in assay [2] it was > 52 µM (inactive).

In the case of `O=C1C(NS(=O)(=O)c2cccs2)=C(N2CCOCC2)C(=O)c2ccccc21`, the AC50 in assay [3] and in assay [4] was > 70 µM (inactive) throughout.

As usually defined, the IC50 is the point on the concentration scale where inhibition reaches its midpoint. As to `CN1CC(=O)N2C(c3cccc([N+](=O)[O-])c3)c3[nH]c4ccccc4c3C[C@H]2C1=O` (stereo partly specified), the IC50 was > 83.3 µM (inactive) in assay [5], 0.798 µM (active) in assay [6], 83.3 µM (inactive) in [7] and 0.393 µM (active) in assay [8].

As to `CO[C@H]1CN(C)C(=O)c2cc(NC(=O)Nc3ccc(Cl)c(Cl)c3)ccc2OC[C@H](C)NC[C@H]1C`, the AC50 is 26.6 µM (active) in assay [9]; 18.1 µM (active) in assay [10]; > 70 µM (inactive) in [11]; 12.1 µM (active) in [12]; 10.4 µM (active) in assay [13]; 23.2 µM (active) in assay [14]. Also, in assay [15], the half-maximal activity concentration (AC50) is 18.5 µM (active).
